Source: article PMC9181188 (International Journal of Molecular Sciences, 2022)
In brackets after ≈: the same amount, converted by molar mass. Read-outs that look alike come from different tables or passages of the source.

Assays:
SW480 cells = experiment: MTT assay, SW480; format: cell-based, human; conditions: for IC50: Homo sapiens, SW480, 72 h, human primary colon cancer, 72 h, MTT, mean ± SD; for SI SW480: SI = IC50 for normal cell line (HaCaT)/IC50 cancer cell line
SW620 cells = experiment: MTT assay, SW620; format: cell-based, human; conditions: for IC50: Homo sapiens, SW-620, 72 h, human metastatic colon cancer, 72 h, MTT, mean ± SD; for SI SW620: SI = IC50 for normal cell line (HaCaT)/IC50 cancer cell line
PC3 cells = experiment: MTT assay, PC3; format: cell-based, human; conditions: for IC50: human metastatic prostate cancer, 72 h, MTT, mean ± SD; for SI PC3: SI = IC50 for normal cell line (HaCaT)/IC50 cancer cell line
HaCaT cells = experiment: MTT assay, HaCaT normal cells; format: cell-based; conditions: human immortal keratinocyte cell line, 72 h, mean ± SD
S. aureus NCTC 4163 = experiment: MIC, twofold microdilution, standard strain; format: cell-based; conditions: Staphylococcus aureus, NCTC4163; 18 h of treatment; read-out: MIC S. aureus NCTC 4163
S. aureus ATCC 25923 = experiment: MIC, twofold microdilution, standard strain; format: cell-based; conditions: Staphylococcus aureus, ATCC25923; 18 h of treatment; read-out: MIC S. aureus ATCC 25923
S. aureus ATCC 6538 = experiment: MIC, twofold microdilution, standard strain; format: cell-based; conditions: Staphylococcus aureus, ATCC6538; 18 h of treatment; read-out: MIC S. aureus ATCC 6538
S. aureus ATCC 29213 = experiment: MIC, twofold microdilution, standard strain; format: cell-based; conditions: Staphylococcus aureus, ATCC29213; 18 h of treatment; read-out: MIC S. aureus ATCC 29213
[1] = system: S. epidermidis ATCC 12228; experiment: MIC, twofold microdilution, standard strain; format: cell-based; conditions: Staphylococcus epidermidis, ATCC12228; 18 h of treatment; read-out: MIC S. epidermidis ATCC 12228
[2] = system: S. epidermidis ATCC 35984; experiment: MIC, twofold microdilution, standard strain; format: cell-based; conditions: Staphylococcus epidermidis, ATCC35984; 18 h of treatment; read-out: MIC S. epidermidis ATCC 35984
E. coli ATCC 25922 = experiment: MIC, twofold microdilution, standard strain; format: cell-based, Escherichia coli; conditions: 18 h of treatment; for MIC: Escherichia coli, ATCC25922, read-out: MIC E. coli ATCC 25922
P. aeruginosa ATCC 27853 = experiment: MIC, twofold microdilution, standard strain; format: cell-based; conditions: Pseudomonas aeruginosa, ATCC27853; 18 h of treatment; read-out: MIC P. aeruginosa ATCC 27853
[3] = system: S. epidermidis KR 4047 825/19; experiment: MIC, clinical S. epidermidis strain; format: cell-based; conditions: Staphylococcus epidermidis, KR4047825/19, quinolone-resistant, 18 h of treatment
[4] = system: S. epidermidis KR 4243 829/19; experiment: MIC, clinical S. epidermidis strain; format: cell-based; conditions: Staphylococcus epidermidis, KR4243829/19, quinolone-susceptible, 18 h of treatment
[5] = system: S. epidermidis KR 4313 834/19; experiment: MIC, clinical S. epidermidis strain; format: cell-based; conditions: Staphylococcus epidermidis, KR4313834/19, quinolone-susceptible, 18 h of treatment
[6] = system: S. epidermidis KR 4358/2 840/19; experiment: MIC, clinical S. epidermidis strain; format: cell-based; conditions: Staphylococcus epidermidis, KR4358/2840/19; clinical S. epidermidis, quinolone-susceptible, 18 h of treatment; read-out: MIC KR 4358/2 840/19
[7] = system: S. epidermidis T 5253 845/19; experiment: MIC, clinical S. epidermidis strain; format: cell-based; conditions: Staphylococcus epidermidis, T5253845/19, quinolone-resistant, 18 h of treatment
[8] = system: S. epidermidis T 5399 848/19; experiment: MIC, clinical S. epidermidis strain; format: cell-based; conditions: Staphylococcus epidermidis, T5399848/19, quinolone-susceptible, 18 h of treatment
[9] = system: S. epidermidis T 5501 851/19; experiment: MIC, clinical S. epidermidis strain; format: cell-based; conditions: Staphylococcus epidermidis, T5501851/19, read-out: MIC T 5501 851/19, quinolone-susceptible, 18 h of treatment
M. tuberculosis H37Rv = experiment: MABA (microplate Alamar blue assay) MIC; format: cell-based; conditions: Mycobacterium tuberculosis, 336 h, 2 weeks of treatment, read-out: MIC M. tuberculosis H37Rv
[10] = system: M. tuberculosis Spec. 192 (Sensitive to Tuberculostatics); experiment: MABA (microplate Alamar blue assay) MIC; format: cell-based; conditions: Mycobacterium tuberculosis, 336 h; 2 weeks of treatment; read-out: MIC M. tuberculosis Spec. 192 (Sensitive to Tuberculostatics)
[11] = molecular target: T1, S. aureus topoisomerase IV (Staphylococcus aureus, UniProt P0C1S7+P0C1U9); experiment: S. aureus topoisomerase IV decatenation assay; format: biochemical
T1 construct: purchased Inspiralis
T1 sequence (P0C1U9 whole entry): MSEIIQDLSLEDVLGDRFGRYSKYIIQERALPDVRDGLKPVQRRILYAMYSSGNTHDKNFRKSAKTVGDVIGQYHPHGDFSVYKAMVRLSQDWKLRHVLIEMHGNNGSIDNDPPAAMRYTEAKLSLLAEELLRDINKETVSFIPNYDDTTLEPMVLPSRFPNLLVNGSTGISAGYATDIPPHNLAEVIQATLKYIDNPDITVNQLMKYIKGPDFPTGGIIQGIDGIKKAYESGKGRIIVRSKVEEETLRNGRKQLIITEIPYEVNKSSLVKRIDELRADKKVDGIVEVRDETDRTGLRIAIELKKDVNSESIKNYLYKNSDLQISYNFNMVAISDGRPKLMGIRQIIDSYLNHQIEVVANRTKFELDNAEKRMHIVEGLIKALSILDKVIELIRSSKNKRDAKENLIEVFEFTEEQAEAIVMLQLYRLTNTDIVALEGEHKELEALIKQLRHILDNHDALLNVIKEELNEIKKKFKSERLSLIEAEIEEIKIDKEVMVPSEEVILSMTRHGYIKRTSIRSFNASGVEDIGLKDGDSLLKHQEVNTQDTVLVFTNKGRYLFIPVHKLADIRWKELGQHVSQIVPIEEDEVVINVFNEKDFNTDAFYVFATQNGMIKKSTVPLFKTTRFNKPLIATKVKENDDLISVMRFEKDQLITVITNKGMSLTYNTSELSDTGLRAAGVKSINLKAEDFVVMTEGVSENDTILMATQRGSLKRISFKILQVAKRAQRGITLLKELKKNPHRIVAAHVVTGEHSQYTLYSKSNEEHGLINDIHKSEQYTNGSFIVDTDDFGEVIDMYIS
T1 sequence (P0C1S7 whole entry): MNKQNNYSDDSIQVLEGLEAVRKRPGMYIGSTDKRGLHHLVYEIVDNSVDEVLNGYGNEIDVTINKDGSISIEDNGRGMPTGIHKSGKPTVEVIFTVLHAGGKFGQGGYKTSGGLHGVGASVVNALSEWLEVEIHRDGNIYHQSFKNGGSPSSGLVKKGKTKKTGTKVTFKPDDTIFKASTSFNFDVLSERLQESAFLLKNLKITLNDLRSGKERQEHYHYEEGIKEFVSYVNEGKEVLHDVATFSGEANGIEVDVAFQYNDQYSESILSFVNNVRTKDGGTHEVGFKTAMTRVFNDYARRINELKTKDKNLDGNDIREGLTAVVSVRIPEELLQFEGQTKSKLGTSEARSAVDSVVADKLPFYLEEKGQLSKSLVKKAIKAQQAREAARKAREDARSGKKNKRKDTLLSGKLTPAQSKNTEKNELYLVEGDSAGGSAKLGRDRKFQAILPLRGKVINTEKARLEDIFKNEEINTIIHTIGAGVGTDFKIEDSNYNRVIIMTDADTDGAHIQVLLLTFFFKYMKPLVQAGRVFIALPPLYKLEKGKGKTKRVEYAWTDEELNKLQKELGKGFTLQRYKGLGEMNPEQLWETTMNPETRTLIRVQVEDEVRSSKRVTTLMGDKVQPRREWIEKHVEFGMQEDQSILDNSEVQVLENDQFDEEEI
Method: The assay was performed using S. aureus topoisomerase IV […] kit (Inspiralis). Kinetoplast DNA (kDNA) was the substrate for topoisomerase IV.

[12] = system: SW480, SW620, and PC3 cancer cell lines; experiment: MTT assay, cancer cell lines as a group; format: cell-based, human; conditions: 72 h, all three cancer cell lines (SW480, SW620, PC3), read-out: IC50 against all tested cancer cell lines
[13] = system: standard staphylococci (S. aureus, S. epidermidis); experiment: MIC, standard Gram-positive strains as a group; format: cell-based; conditions: Staphylococcus aureus; range over standard Gram-positive strains; read-out: MIC against standard staphylococci
[14] = system: quinolone-susceptible clinical coagulase-negative staphylococci; experiment: MIC, quinolone-susceptible clinical isolates as a group; format: cell-based; conditions: Staphylococcus epidermidis; five quinolone-susceptible isolates; read-out: MIC against quinolone-susceptible clinical isolates
S. aureus DNA gyrase = S. aureus DNA gyrase (Staphylococcus aureus, UniProt P0A0K8+P20831); experiment: biochemical
Sequence of S. aureus DNA gyrase (P20831 whole entry): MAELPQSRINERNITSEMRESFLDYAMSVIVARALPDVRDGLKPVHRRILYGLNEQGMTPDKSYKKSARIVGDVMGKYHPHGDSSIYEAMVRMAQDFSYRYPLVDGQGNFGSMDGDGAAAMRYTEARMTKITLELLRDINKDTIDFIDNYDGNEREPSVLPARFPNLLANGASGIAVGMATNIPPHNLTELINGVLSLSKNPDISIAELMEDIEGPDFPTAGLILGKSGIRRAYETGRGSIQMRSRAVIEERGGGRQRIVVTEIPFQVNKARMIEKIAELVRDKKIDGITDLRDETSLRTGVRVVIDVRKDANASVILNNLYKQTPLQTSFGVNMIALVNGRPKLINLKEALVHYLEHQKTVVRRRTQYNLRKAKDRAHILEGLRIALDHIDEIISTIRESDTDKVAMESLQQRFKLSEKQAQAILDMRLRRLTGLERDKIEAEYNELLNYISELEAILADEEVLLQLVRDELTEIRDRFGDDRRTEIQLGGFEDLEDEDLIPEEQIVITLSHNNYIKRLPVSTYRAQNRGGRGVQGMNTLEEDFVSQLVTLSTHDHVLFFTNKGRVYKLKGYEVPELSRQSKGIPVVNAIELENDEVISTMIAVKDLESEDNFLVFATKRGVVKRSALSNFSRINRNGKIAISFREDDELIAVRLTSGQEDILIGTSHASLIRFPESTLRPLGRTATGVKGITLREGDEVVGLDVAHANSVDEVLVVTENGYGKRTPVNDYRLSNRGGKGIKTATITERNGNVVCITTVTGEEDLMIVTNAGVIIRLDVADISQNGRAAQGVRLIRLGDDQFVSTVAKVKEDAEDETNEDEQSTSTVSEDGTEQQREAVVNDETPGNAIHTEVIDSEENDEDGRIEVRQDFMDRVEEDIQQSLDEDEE
Sequence of S. aureus DNA gyrase (P0A0K8 whole entry): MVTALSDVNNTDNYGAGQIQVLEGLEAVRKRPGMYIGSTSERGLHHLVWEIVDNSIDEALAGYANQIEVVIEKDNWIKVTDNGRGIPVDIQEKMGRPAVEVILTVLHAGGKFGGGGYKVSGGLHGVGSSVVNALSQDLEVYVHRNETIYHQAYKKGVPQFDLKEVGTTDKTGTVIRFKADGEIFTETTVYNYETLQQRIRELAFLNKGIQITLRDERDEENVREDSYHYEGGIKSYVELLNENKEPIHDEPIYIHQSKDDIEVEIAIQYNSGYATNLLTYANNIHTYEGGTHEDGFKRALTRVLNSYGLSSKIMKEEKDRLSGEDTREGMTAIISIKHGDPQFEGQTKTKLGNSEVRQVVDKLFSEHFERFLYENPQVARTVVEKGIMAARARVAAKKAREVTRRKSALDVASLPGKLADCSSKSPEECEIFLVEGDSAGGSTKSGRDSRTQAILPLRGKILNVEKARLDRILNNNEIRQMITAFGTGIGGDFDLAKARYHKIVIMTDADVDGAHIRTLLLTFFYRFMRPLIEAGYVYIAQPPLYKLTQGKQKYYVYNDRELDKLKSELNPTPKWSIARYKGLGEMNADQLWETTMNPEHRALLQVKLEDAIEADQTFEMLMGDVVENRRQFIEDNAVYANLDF
Method: The assay was performed using S. aureus DNA Gyrase Supercoiling kit (Inspiralis). […] Samples were vortexed, centrifuged, and 20 µL of the aqueous phase of each sample was loaded onto a 1% agarose gel and left for 30 min prior to electrophoresis to allow diffusion of salt. Electrophoresis was conducted in TAE buffer for 3 h at 50 V. Gels were stained with ethidium bromide and visualized under UV light in a transilluminator (ChemiDoc MP, Bio Rad, Warsaw, Poland).

Row | Structure (SMILES) | IC50 (SW480 cells) [µM] | SI SW480 (SW480 cells) | IC50 (SW620 cells) [µM] | SI SW620 (SW620 cells) | IC50 (PC3 cells; Homo sapiens, PC-3, 72 h) [µM] | SI PC3 (PC3 cells) | IC50 (HaCaT cells) [µM] | MIC (S. aureus NCTC 4163) [µg/mL] | MIC (S. aureus ATCC 25923) [µg/mL] | MIC (S. aureus ATCC 6538) [µg/mL] | MIC (S. aureus ATCC 29213) [µg/mL] | MIC [1] [µg/mL] | MIC [2] [µg/mL] | MIC (E. coli ATCC 25922) [µg/mL] | MIC (P. aeruginosa ATCC 27853) [µg/mL] | MIC [3] [µg/mL] | MIC [4] [µg/mL] | MIC [5] [µg/mL] | MIC [6] [µg/mL] | MIC [7] [µg/mL] | other results
1 | CC/C=C\C/C=C\C/C=C\C/C=C\C/C=C\C/C=C\CCC(=O)N1CCCC2CN(c3c(F)cc4c(=O)c(C(=O)O)cn(C5CC5)c4c3OC)CC21 (stereo not shown) [Compound 8m, 1-Cyclopropyl-7-{1-(4Z,7Z,10Z,13Z,16Z,19Z)-docosa-4,7,10,13,16,19-hexaenoyl-octahydro-pyrrolo[3,4-b]pyridin-6-yl}-6-fluoro-8-methoxy-4-oxo-1,4-dihydro-quinoline-3-carboxylic acid] | 6.2 ± 1.3 | 13.1 | 9.4 ± 3.7 | 8.7 | 5.6 ± 1.9 | 14.5 | 81.4 ± 3.2 | 2 (≈ 2.81 µM) | 2 (≈ 2.81 µM) | 2 (≈ 2.81 µM) | 4 (≈ 5.62 µM) | 4 (≈ 5.62 µM) | 2 (≈ 2.81 µM) | 2 (≈ 2.81 µM) | > 512 | 512 (≈ 719 µM) | 4 (≈ 5.62 µM) | 4 (≈ 5.62 µM) | 4 (≈ 5.62 µM) | 512 (≈ 719 µM) | MIC E. coli ATCC 25922 (E. coli ATCC 25922): 2 to 16 µg/mL; MIC [8]: 4 µg/mL (≈ 5.62 µM); MIC [9]: 4 µg/mL (≈ 5.62 µM); MIC (M. tuberculosis H37Rv): 8 µg/mL (≈ 11.2 µM); MIC [10]: 4 µg/mL (≈ 5.62 µM); IC50 [11]: > 89.9 µM; IC50 ([12]; Homo sapiens): 5 to 10 µM; IC50 [12]: 5.6 to 10.4 µM; MIC [13]: 2 to 4 µg/mL (≈ 2.81 to 5.62 µM); MIC [14]: 4 µg/mL (≈ 5.62 µM); IC50 (S. aureus DNA gyrase): > 89.9 µM
2 | C=CCCCCC(=O)N1CCCC2CN(c3c(F)cc4c(=O)c(C(=O)O)cn(C5CC5)c4c3OC)CC21 (stereo not shown) [Compound 10m, 1-Cyclopropyl-6-fluoro-7-(1-hept-6-enoyl-octahydro-pyrrolo[3,4-b]pyridin-6-yl)-8-methoxy-4-oxo-1,4-dihydro-quinoline-3-carboxylic acid] | 5.8 ± 0.8 | 15.1 | 6.2 ± 1.1 | 14.1 | < 5 | 19.0 | 87.6 ± 4.5 | 2 (≈ 3.91 µM) | 2 (≈ 3.91 µM) | 2 (≈ 3.91 µM) | 2 (≈ 3.91 µM) | 4 (≈ 7.82 µM) | 2 (≈ 3.91 µM) | 32 (≈ 62.5 µM) | > 512 | 16 (≈ 31.3 µM) | 2 (≈ 3.91 µM) | 2 (≈ 3.91 µM) | 4 (≈ 7.82 µM) | 16 (≈ 31.3 µM) | IC50 (PC3 cells): 4.6 ± 1.1 µM; MIC [8]: 2 µg/mL (≈ 3.91 µM); MIC [9]: 4 µg/mL (≈ 7.82 µM); MIC (M. tuberculosis H37Rv): 32 µg/mL (≈ 62.5 µM); MIC [10]: 32 µg/mL (≈ 62.5 µM); MIC [13]: 2 to 4 µg/mL (≈ 3.91 to 7.82 µM); MIC [14]: 2 to 8 µg/mL (≈ 3.91 to 15.6 µM)
3 | CCCCC/C=C\C/C=C\C/C=C\C/C=C\CCCC(=O)N1CCCC2CN(c3c(F)cc4c(=O)c(C(=O)O)cn(C5CC5)c4c3OC)CC21 (stereo not shown) [Compound 13m, 1-Cyclopropyl-6-fluoro-7-{1-(5Z,8Z,11Z,14Z)-icosa-5,8,11,14-tetraenoyl-octahydro-pyrrolo[3,4-b]pyridin-6-yl}-8-methoxy-4-oxo-1,4-dihydro-quinoline-3-carboxylic acid] | 32.3 ± 4.1 | 2.9 | 39.4 ± 4.1 | 2.4 | 28.3 ± 2.8 | 3.3 | 93.3 ± 2.8 | 16 (≈ 23.3 µM) | 16 (≈ 23.3 µM) | 16 (≈ 23.3 µM) | 16 (≈ 23.3 µM) | 16 (≈ 23.3 µM) | 16 (≈ 23.3 µM) | 16 (≈ 23.3 µM) | > 512 | 256 (≈ 372 µM) | 4 (≈ 5.81 µM) | 8 (≈ 11.6 µM) | 8 (≈ 11.6 µM) | 512 (≈ 744 µM) | MIC E. coli ATCC 25922 (E. coli ATCC 25922): 2 to 16 µg/mL; MIC [8]: 4 µg/mL (≈ 5.81 µM); MIC [9]: 8 µg/mL (≈ 11.6 µM); MIC (M. tuberculosis H37Rv): 4 µg/mL (≈ 5.81 µM); MIC [10]: 4 µg/mL (≈ 5.81 µM); MIC [13]: 8 to 32 µg/mL (≈ 11.6 to 46.5 µM); MIC [14]: 2 to 8 µg/mL (≈ 2.91 to 11.6 µM)
